The values below come from paper PMC10819979, “Antitumor Mechanism and Therapeutic Potential of Cordycepin Derivatives” (Molecules, 2024).

One series has as its system SGC-7901 cells. Put plainly: MTT cell proliferation assay, SGC-7901. Format: cell-based. Conditions: Homo sapiens, 48 h incubation, x̄ ± s, n = 6. The protocol:
(§1) MCF7, HepG2, SGC-7901 and MCF-10A were purchased from the National Infrastructure of Cell Line Resources in the Chinese Academy of Sciences (Shanghai Institute of Biochemistry and Cell Biology, Shanghai, China). Cells were maintained using RPMI-1640 medium with 10% fetal bovine serum. The cells were maintained at 37 °C in a 5% CO2-containing incubator for all treatments. Logarithmic growth phase cells were used in all experiments.
(§2) The effect of compounds on the proliferation of cancer cells was determined with an MTT assay. Cells monolayer in exponential growth were seeded in 96-well plates at 5 × 10^3 cells/well. After cultured at 37 °C for 24 h, the culture medium was removed, then compounds (3a–4c) (1.25, 2.5, 5, 10, 20, 40, 80 μM) and HCPT (4, 8, 16 μM) were added. After 48 h incubation, 100 µL of MTT was added to each well and then cultured for 4 h in a 37 °C incubator. After that, the medium was aspirated, 150 µL of DMSO was then added to each well, and the 96-well plates were placed on an orbital shaker for 12 min until the formazan dissolved completely. The absorbance was measured at a test wavelength of 490 nm with a microplate reader, the optical density (OD) values were tested and the inhibitory rate and half inhibitory concentration (IC50) were calculated for each administration group.

A further series has as its system HepG2 cells. Put plainly: MTT cell proliferation assay, HepG2. Type of series: cell-based. Conditions: Homo sapiens, 48 h incubation, x̄ ± s, n = 6. As to the method:
as §1, §2
Background: Formazan colour is commonly taken as a measure of viable cells.

Series [1] relates to MCF7 cells. Put plainly: MTT cell proliferation assay, MCF7. Format: cell-based. Conditions: Homo sapiens, 48 h incubation, x̄ ± s, n = 6. The protocol:
as §1, §2

The next series concerns MCF7. The arrangement: method as in PMID 32163051, PMID 22821173. The following applies: breast cancer cell viability; cited from earlier work.
In a further series the test system is MDA-MB-453 cells. On the set-up: method as in PMID 32163051, PMID 22821173. Conditions: breast cancer cell viability; cited from earlier work.
Series [2] deals with MCF7 cells. Put plainly: Mitochondrial membrane potential assay (rhodamine 123, flow cytometry). Type of series: cell-based. The following applies: MCF7, dose–effect relationship. The protocol: MCF7 cells were cultured in 6-well plates, after treatment with compounds in different concentrations and positive control group (HCPT), cells were harvested, washed with PBS, and then stained with rhodamine 123 (100 µg) for 30 min at 37 °C. The cells were collected by pipetting, washed twice with PBS and analyzed by flow cytometry (BD Biosciences, San Jose, CA, USA).
(In flow cytometry, cells or beads pass a laser one at a time.)

The subject of series [3] is MCF7 cells. Put plainly: Cell cycle detection by flow cytometry (PI). Format: cell-based. Conditions: 14, 28 and 56 μM, dose-dependent. The protocol:
After the treatments, the harvested cells were incubated at 70% in ice-ethanol overnight. Subsequently, they were washed twice using PBS and incubated with propidium iodide (PI) and RNase A. Finally, the proportions of cells in different cell cycle phases were determined by flow cytometry.

The subject of the next series is Caspase-3. Put plainly: Western Blot, Caspase-3 expression in MCF7 cells. Format: cell-based. Conditions: MCF7, 14, 28, 56 μM, 48 h. As to the method: (§3) Cells were cultured in the medium for 24 h and treated with compounds in different concentrations and HCPT for 48 h. After lysis buffer (RIPA: PMSF = 100:1) was used to lyse cells. The lysate was further sonicated and centrifuged at 12,000 rpm for 15 min, then the supernatant obtained was collected and the denatured protein mixture was subjected to SDS gel electrophoresis and transferred to nitrocellulose membranes, and blocked with containing 5% nonfat milk. Then, the membranes were incubated with the primary antibodies (1:1000, overnight 4 °C) and secondary antibodies (1:5000, 1 h). Then, ECL Solution was used to detect the antigen–antibody complexes. The data were analyzed by NIH Image J 1.53a software.

The test system of series [4] is MCF7 cells. Put plainly: Apoptosis of MCF7 cells by flow cytometry. Type of series: cell-based. The following applies: MCF7, 56 μM, 48 h, n = 3. The protocol:
Cells were cultured in the medium for 24 h and treated with compounds in different concentrations and HCPT incubated for 48 h. The cells were centrifuged at 1000 rpm for 10 min and washed with PBS. Subsequently, the cells were […] stained with annexin V-FITC (10 μL) and propidium iodide (PI; 10 μL). The proportion of apoptotic cells was then measured by flow cytometry.

The next series has as its system Bax. Put plainly: Western Blot, Bax expression in MCF7 cells. Type of series: cell-based. The following applies: MCF7, 14, 28, 56 μM, 48 h. As to the method:
as §3
For orientation: A western blot detects proteins with antibodies after separation by electrophoresis.

Another series relates to p53. Put plainly: Western Blot, p53 expression in MCF7 cells. Conditions: MCF7, 14, 28, 56 μM, 48 h. Format: cell-based. The protocol: as §3
For a further series, the system named is MCF-10A cells. Put plainly: In vitro cytotoxicity against normal breast cell line. Type of series: cell-based. The protocol: as §1, §2
The next series concerns Caspase-9. Put plainly: Western Blot, Caspase-9 expression in MCF7 cells. Type of series: cell-based. Conditions: MCF7, 14, 28, 56 μM, 48 h. The protocol: as §3
Another series concerns Bcl-2. Put plainly: Western Blot, Bcl-2 expression in MCF7 cells. Conditions: MCF7, 14, 28, 56 μM, 48 h. Type of series: cell-based. As to the method:
as §3

SMILES strings stand for the structures.

By IC50 is commonly meant the point on the concentration scale where inhibition reaches its midpoint. In the case of `CC(C)(C)[Si](C)(C)OC[C@@H]1C[C@@H](O)[C@H](n2cnc3c(NC(=O)c4cccs4)ncnc32)O1` [Compound 3a, 5′-O-(Tert-butyldimethylsilyl)-6-thiophenecarboxamide-3′-deoxya-denosine], the half-inhibitory concentration (IC50) in the series on SGC-7901 cells was 102 ± 1.08 µM; in the series with HepG2 cells, 134 ± 5.12 µM; in the series with MCF7 cells [1] it was 114 ± 2.03 µM.
On to `Nc1ncnc2c1ncn2[C@@H]1O[C@H](CO)C[C@H]1O` [Cordycepin], for which the IC50 in the series with SGC-7901 cells was 51.3 ± 3.77 µM; in the series on HepG2 cells it was 51.8 ± 1.36 µM; in the series on MCF7, 135 µM; with MDA-MB-453 cells, 70 µM; in the series with MCF7 cells [1] it was 46.9 ± 1.62 µM.
Regarding `CC[C@@]1(O)C(=O)OCc2c1cc1n(c2=O)Cc2cc3cc(O)ccc3nc2-1` [10-hydroxycamptothecin (HCPT), 10-hydroxycamptothecin, reference compound], the IC50 in the series on SGC-7901 cells is 7.96 ± 0.65 µM; with HepG2 cells, 6.56 ± 0.45 µM; in the series on MCF7 cells [1] it was 7.56 ± 0.05 µM.
On to `O=C(Nc1ncnc2c1ncn2[C@@H]1O[C@H](CO)C[C@H]1O)c1cccs1` [Compound 4a, 6-Thiophenecarboxamide-3′-deoxyadenosine], for which the “positive expression rate and cell membrane potential with increase in dose” value in the series with MCF7 cells [2] is on record as “decrease gradually”. Besides, the IC50 with SGC-7901 cells came out at 38.93 ± 0.06 µM; in the series with HepG2 cells it was 68.8 ± 3.34 µM; in the series on MCF7 cells [1], 27.6 ± 0.52 µM. In addition, the “effect on MCF7 cell cycle” value in the series on MCF7 cells [3] was “cell cycle arrest at the G0/G1 phase”. In addition, the “expression of Caspase-3” value with Caspase-3 is recorded as “up-regulate”. In addition, the “percentage of apoptotic cells” value with MCF7 cells [4] is listed as 50.422 ± 1.862%. The “expression of Bax” value with Bax is listed as “up-regulate”. In addition, the “expression of p53” value with p53 was “up-regulate”. The “in vitro cytotoxicity against MCF-10A” value with MCF-10A cells is “low toxicity”. Further, in the series on Caspase-9, the “expression of Caspase-9” value is reported as “up-regulate”. The “expression of Bcl-2 protein” value in the series with Bcl-2 is recorded as “down-regulate”.
For `CC(C)(C)[Si](C)(C)OC[C@@H]1C[C@@H](O)[C@H](n2cnc3c(NC(=O)c4ccc(Cl)nc4)ncnc32)O1` [Compound 3c, 5′-O-(Tert-butyldimethylsilyl)-6-6-chloroformamide-3′-deoxya-denosine], the half-inhibitory concentration (IC50) was 82.6 ± 1.48 µM with SGC-7901 cells, 87.01 ± 0.04 µM in the series on HepG2 cells and 45.8 ± 1.01 µM in the series on MCF7 cells [1].
On to `O=C(Nc1ncnc2c1ncn2[C@@H]1O[C@H](CO)C[C@H]1O)c1ccc(Cl)nc1` [Compound 4c, 6-6-Chloronicotinamide-3′-deoxyadenosine], for which the results for the 50% inhibitory concentration (IC50) in the series on SGC-7901 cells, with HepG2 cells and with MCF7 cells [1] were 80.4 ± 1.05 µM, 48.4 ± 0.79 µM and 45.3 ± 0.58 µM, respectively.
For `O=C(Nc1ncnc2c1ncn2[C@@H]1O[C@H](CO)C[C@H]1O)c1ccco1` [Compound 4b, 6-Furancarboxamide-3′-deoxyadenosine], the IC50 came out at 86.3 ± 2.35 µM in the series with SGC-7901 cells, 33.37 ± 0.08 µM in the series with HepG2 cells and 40.9 ± 1.67 µM with MCF7 cells [1].
On to `CC(C)(C)[Si](C)(C)OC[C@@H]1C[C@@H](O)[C@H](n2cnc3c(NC(=O)c4ccco4)ncnc32)O1` [Compound 3b, 5′-O-(Tert-butyldimethylsilyl)-6-furancarboxamide-3′-deoxyadenosine], for which the IC50 with SGC-7901 cells was 41.7 ± 2.36 µM; with HepG2 cells it was 60.4 ± 1.15 µM; in the series on MCF7 cells [1], 98.03 ± 0.04 µM.
